Assay [1] is described as follows: Stimulation of insulin secretion in rat INS-1E cells after 1 hr by alphaLISA assay in presence of 5 mM glucose. It is filed as functional, cell-based.
The nature of assay [2]: Stimulation of insulin secretion in rat INS-1E cells after 1 hr by alphaLISA assay in presence of 5 mM glucose relative to IBMX. The format is functional.
The nature of assay [3]: (§1) Stimulation of insulin secretion in rat INS-1E cells after 1 hr by alphaLISA assay in presence of 0.1 mM glucose. It is filed as functional, cell-based.
The next assay concerns INS-1E. The description is as §1. The format is functional, cell-based.
Assay [4] deals with Pancreatic islet. The experiment in a line: Stimulation of insulin secretion in rat pancreatic islets at 3 uM in presence of 3 mM glucose. It is filed as functional.
Assay [5] deals with Pancreatic islet. Put plainly: Stimulation of insulin secretion in rat pancreatic islets at 3 uM in presence of 11 mM glucose. It is filed as functional.
A short description of assay [6]: Stimulation of insulin secretion in rat INS-1E cells after 1 hr by alphaLISA assay in presence of 0.1 mM glucose relative to IBMX. It is filed as functional.
In assay [7] the test system is Pancreatic islet. The experiment in a line: Stimulation of insulin secretion in rat pancreatic islets in presence of 11 mM glucose. It is filed as functional.

Calls of active or inactive are those of the source. No cut-off for these calls is given here.

With `C/C=C/[C@H]1C[C@H]2CC[C@H](CCc3ccccc3)N2C(=N)N1`, the results for the concentration for a half-maximal effect (EC50) in assay [1] and in assay [3] were 1450 nM and over 33000 nM, respectively. Moreover, the Emax in assay [2] stood at 21%.

For `N=C1N[C@@H](c2cccc(Br)c2)C[C@H]2CC[C@H](CCc3ccccc3)N12`, the EC50 in assay [1] was determined as 1010 nM. For the same compound, in assay [2], the Emax was 22%. Besides, the result in the assay with INS-1E was inactive.

On to `N=C1N[C@@H](c2ccc(Br)cc2)C[C@H]2CC[C@H](CCc3ccccc3)N12`, for which the EC50 in assay [1] is 630 nM. The Emax in assay [2] was determined as 23%. Moreover, in the assay with INS-1E, the result was inactive.

With `CCC[C@H]1CC[C@@H]2C[C@H](c3ccccc3)NC(=N)N12`, the concentration for a half-maximal effect (EC50) in assay [1] stood at 11100 nM. Moreover, the Emax in assay [2] worked out at 55%. In the assay on INS-1E, the result was inactive.

For the compound `Cc1cc(C)c(Nc2ccccc2CC[C@H]2CC[C@@H]3C[C@H](c4ccccc4)NC(=N)N23)c(C)c1`, the EC50 in assay [1] was determined as 1370 nM. For the same compound, in assay [2], the Emax worked out at 54%. The result in the assay on INS-1E was inactive.

As for `N=C1N[C@@H](c2ccccc2)C[C@H]2CC[C@H](c3ccccc3)N12`, the concentration for a half-maximal effect (EC50) in assay [1] is over 33000 nM. For the same compound, in the assay with INS-1E, the result was inactive.

As for `O=C1N[C@@H](c2ccccc2)C[C@H]2CC[C@H](CCc3ccccc3)N12`, in assay [1], the half-maximal effective concentration (EC50) was over 33000 nM. The result in the assay with INS-1E was inactive.

With `Cc1cc(C)c(Nc2ccc(CC[C@H]3CC[C@@H]4C[C@H](c5ccccc5)NC(=N)N34)cc2)c(C)c1`, in assay [1], the EC50 was over 33000 nM. The outcome in the assay on INS-1E was inactive.

`CN1C(=N)N2[C@@H](CCc3ccccc3)CC[C@@H]2C[C@@H]1c1ccccc1`: the EC50 in assay [1] turned out to be 670 nM. For the same compound, the Emax in assay [2] turned out to be 29%. In addition, the outcome in the assay on INS-1E was inactive.

As to `N=C(N)N1C(CCc2ccccc2)CCC1Sc1ccccc1` (centres undefined), the 50% effective concentration (EC50) in assay [1] is 1330 nM. Moreover, the Emax in assay [2] stood at 62%. Also, the outcome in the assay on INS-1E was inactive.

For the compound `N=C1N[C@@H](c2ccccc2)C[C@H]2CCCN12` (mixture of isomers), the EC50 in assay [1] was over 33000 nM. The outcome in the assay with INS-1E was inactive.

As to `N=C1N[C@@H](C2CCCCC2)C[C@H]2CC[C@H](CCc3ccccc3)N12`, the EC50 in assay [1] is 750 nM. In addition, the Emax in assay [2] was 40%. The outcome with INS-1E was inactive.

Take `CC(C)(C)OC(=O)/N=C1\N[C@@H](c2ccccc2)C[C@H]2CC[C@H](CCc3ccccc3)N12`: the concentration for a half-maximal effect (EC50) in assay [1] is over 33000 nM. Besides, the result with INS-1E was inactive.

Regarding `N=C(N)N1C(CCc2ccccc2)CCC1CCc1ccccc1` (mixture of isomers), the EC50 in assay [1] was determined as 4870 nM. The Emax in assay [2] amounted to 29%. The result with INS-1E was inactive.

`N=C(NCc1ccccc1)N1CCCC1CCc1ccccc1` (centres undefined): the half-maximal effective concentration (EC50) in assay [1] was found to be 2470 nM. Also, the maximal effect (Emax) in assay [2] was 84%. In the assay with INS-1E, the result was inactive.

For the compound `N=C1N[C@H](c2ccccc2)C[C@H]2CC[C@H](CCc3ccccc3)N12`, in assay [1], the EC50 came out at 2740 nM. Also, the Emax in assay [2] is 21%.

For `N=C1N[C@@H](c2ccccc2)C[C@H]2CC[C@H](CCCc3ccccc3)N12` (mixture of isomers), the EC50 in assay [1] was found to be 830 nM. Further, in assay [2], the Emax is 31%. Moreover, the outcome in the assay with INS-1E was inactive.

For the compound `N=C1N[C@@H](c2ccccc2)C[C@H]2CC[C@H](CCc3ccccc3)N12`, the figures for the EC50 in assay [1] and in assay [3] were 1250 nM and over 33000 nM, respectively. Moreover, the Emax in assay [2] was determined as 34%.

As for `Cn1cc(CC[C@H]2CC[C@@H]3C[C@H](c4ccccc4)NC(=N)N23)cn1`, the EC50 in assay [1] was over 33000 nM. In the assay with INS-1E, the outcome was inactive.

Consider `Cc1cccc([C@H]2C[C@H]3CC[C@H](CCc4ccccc4)N3C(=N)N2)c1` (mixture of isomers), for which the EC50 in assay [1] came to 1100 nM. Also, the maximum response (Emax) in assay [2] stood at 20%. Further, the outcome with INS-1E was inactive.

Take `N=C1N[C@@H](c2ccccc2)C[C@H]2CC[C@H](CCc3ccncc3)N12`: in assay [1], the EC50 was over 33000 nM. In addition, in the assay with INS-1E, the outcome was inactive.

As for `Cc1ccccc1[C@H]1C[C@H]2CC[C@H](CCc3ccccc3)N2C(=N)N1`, the outcome with Pancreatic islet [4] and with INS-1E was inactive. In assay [1], the EC50 worked out at 1010 nM. Also, the Emax in assay [2] was 59%. In the assay with Pancreatic islet [5], the result was Active.

`COc1cccc([C@H]2C[C@H]3CC[C@H](CCc4ccccc4)N3C(=N)N2)c1` (mixture of isomers): in assay [1], the EC50 worked out at 760 nM. Moreover, the Emax in assay [2] turned out to be 21%. The outcome in the assay with INS-1E was inactive.

For the compound `N=C1N[C@@H](c2ccccc2)C[C@H]2CC[C@H](CCc3cccc(Br)c3)N12`, the EC50 in assay [1] came out at 450 nM. The Emax in assay [2] amounted to 26%. Further, the result in the assay with INS-1E was inactive.

On to `N=C(N)N1C(CCc2ccccc2)CCC1Cc1ccccc1` (mixture of isomers), for which the EC50 in assay [1] was 5740 nM. In assay [2], the Emax came out at 56%. In addition, the outcome with INS-1E was inactive.

Turning to `Cc1cc(C)c(Nc2cccc(CC[C@H]3CC[C@@H]4C[C@H](c5ccccc5)NC(=N)N34)c2)c(C)c1`, the EC50 in assay [1] is over 33000 nM. Further, in the assay with INS-1E, the result was inactive.

Consider `N=C1N[C@@H](c2ccccc2)C[C@H]2CC[C@H](Cc3ccccc3)N12`, for which, in assay [1], the EC50 turned out to be 4740 nM. Besides, in assay [2], the Emax was determined as 52%. Moreover, the outcome in the assay on INS-1E was inactive.

As for `CC(=O)Nc1ccc([C@H]2C[C@H]3CC[C@H](CCc4ccccc4)N3C(=N)N2)cc1`, the EC50 in assay [1] was over 33000 nM. Besides, the outcome in the assay on INS-1E was inactive.

`N=C1NCC[C@H]2CC[C@H](CCc3ccccc3)N12`: the concentration for a half-maximal effect (EC50) in assay [1] is over 33000 nM. For the same compound, in the assay with INS-1E, the result was inactive.

On to `N=C1N[C@@H](c2ccc(F)cc2)C[C@H]2CC[C@H](CCc3ccccc3)N12`, for which, in assay [1], the EC50 was 4040 nM. The Emax in assay [2] was found to be 26%. For the same compound, the outcome in the assay on INS-1E was inactive.

Take `N=C1N[C@@H](c2ccccc2Br)C[C@H]2CC[C@H](CCc3ccccc3)N12` (mixture of isomers): the EC50 in assay [1] worked out at 670 nM. Further, the Emax in assay [2] amounted to 52%. Further, the outcome in the assay on INS-1E was inactive.

`N=C1N[C@@H](c2ccc(C(=O)O)cc2)C[C@H]2CC[C@H](CCc3ccccc3)N12`: in assay [1], the EC50 is over 33000 nM. Besides, in the assay on INS-1E, the result was inactive.

Take `N=C(N)N1C(Sc2ccccc2)CCC1c1ccccc1` (mixture of isomers): the EC50 in assay [1] is 5030 nM. Moreover, the Emax in assay [2] turned out to be 54%. Also, in the assay with INS-1E, the outcome was inactive.

For the compound `COc1ccc(Cl)cc1C(=O)NCCc1ccc(S(=O)(=O)NC(=O)NC2CCCCC2)cc1` [GLYBURIDE], the EC50 was found to be 3 nM in assay [1] and 7 nM in assay [3]. The Emax in assay [2] was 50%; in assay [6], 17%.

As for `N=C1N[C@@H](c2ccccc2)C[C@H]2CC[C@H](c3ccc(-c4ccccc4)cc3)N12`, in assay [1], the EC50 was over 33000 nM. In the assay with INS-1E, the outcome was inactive.

`N=C1N[C@@H](c2ccccc2)C[C@H]2CC[C@H](COc3ccccc3)N12`: in assay [1], the EC50 is over 33000 nM. In addition, in the assay on INS-1E, the result was inactive.

`Cc1ccc([C@H]2C[C@H]3CC[C@H](CCc4ccccc4)N3C(=N)N2)cc1` (mixture of isomers): the concentration for a half-maximal effect (EC50) in assay [1] is 1000 nM. For the same compound, in assay [2], the Emax came out at 40%. The outcome in the assay on INS-1E was inactive.

Regarding `N=C1NC(c2ccccc2)CCN1CCCc1ccccc1` (centres undefined), the EC50 in assay [1] was found to be 4790 nM. For the same compound, in assay [2], the maximal response (Emax) turned out to be 39%. The result in the assay with INS-1E was inactive.

As for `C[C@@H]1[C@H]2CC[C@H](CCc3ccccc3)N2C(=N)N[C@H]1c1ccccc1`, the concentration giving a half-maximal response (EC50) in assay [1] is 1300 nM; in assay [3], over 33000 nM. Besides, in assay [2], the Emax came to 27%. The outcome in the assay with Pancreatic islet [7] was Active.

As to `N=C1N[C@@H](c2ccc(C(F)(F)F)cc2)C[C@H]2CC[C@H](CCc3ccccc3)N12`, the half-maximal effective concentration (EC50) in assay [1] is over 33000 nM. Moreover, the outcome in the assay on INS-1E was inactive.

Source of the values: ChEMBL document CHEMBL3112502, “The insulin secretory action of novel polycyclic guanidines: discovery through open innovation phenotypic screening, and exploration of structure-activity relationships” (Bioorg Med Chem Lett, 2014).
